Laboratory results: the supplement of paper PMC4862054

Columns and labels:
Conditions in all cases: incubation time: 72 h
BT-474 [1] = test: normalised response (% of control), CellTox Green; higher = less cell death (100 = DMSO, 0 = benzethonium chloride kill control)
Procedure, shortened: (§1)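 Normalised signals at single concentrations make up the values. They come from breast cancer cell lines seeded (20 µl suspension) into 384-well plates with compound at 5 concentrations in 10-fold steps over a compound-specific 10,000-fold range, incubated 72 h, and read for CellTox Green fluorescence then CellTiter-Glo luminescence. Each plate was normalised to 0.1 % DMSO (100) and a positive kill control (0).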

HCC1599 [2] = test: as above
Procedure, shortened: as §1

MFM-223 [3] = test: as above
Procedure, shortened: as §1

MDA-MB-468 [4] = test: as above
Procedure, shortened: as §1

DU-4475 [5] = test: as above
Procedure, shortened: as §1

CAL-85-1 [6] = test: as above
Procedure, shortened: as §1

MDA-MB-231 [7] = test: as above
Procedure, shortened: as §1

MCF-10A [8] = test: as above
Procedure, shortened: as §1

CAL-148 [9] = test: as above
Procedure, shortened: as §1

HCC1143 [10] = test: as above
Procedure, shortened: as §1

CAL-120 [11] = test: as above
Procedure, shortened: as §1

CAL-51 [12] = test: as above
Procedure, shortened: as §1

BT-549 [13] = test: as above
Procedure, shortened: as §1

HDQ-P1 [14] = test: as above
Procedure, shortened: as §1

Hs578T [15] = test: as above
Procedure, shortened: as §1

MDA-MB-436 [16] = test: as above
Procedure, shortened: as §1

MDA-MB-453 [17] = test: as above
Procedure, shortened: as §1

BT-474 [18] = test: normalised response (% of control), CellTiter-Glo; higher = more viable cells (100 = DMSO, 0 = benzethonium chloride kill control)
Description: (§2)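 DSRT, 72 h incubation, CellTox Green / CellTiter-Glo readout. Signal is normalised to DMSO and benzethonium chloride controls. Value is the normalised response at dose 3.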

HCC1599 [19] = test: as above
Description: as §2

MFM-223 [20] = test: as above
Description: as §2

MDA-MB-468 [21] = test: as above
Description: as §2

DU-4475 [22] = test: as above
Description: as §2

CAL-85-1 [23] = test: as above
Description: as §2

MDA-MB-231 [24] = test: as above
Description: as §2

MCF-10A [25] = test: as above
Description: as §2

CAL-148 [26] = test: as above
Description: as §2

HCC1143 [27] = test: as above
Description: as §2

HCC1937 [28] = test: as above
Description: as §2

CAL-120 [29] = test: as above
Description: as §2

CAL-51 [30] = test: as above
Description: as §2

BT-549 [31] = test: as above
Description: as §2

SK-BR-3 = test: as above
Description: as §2

HDQ-P1 [32] = test: as above
Description: as §2

Hs578T [33] = test: as above
Description: as §2

MDA-MB-436 [34] = test: as above
Description: as §2

MDA-MB-453 [35] = test: as above
Description: as §2

HCC1937 [36] = test: normalised response (% of control), CellTox Green; higher = less cell death (100 = DMSO, 0 = benzethonium chloride kill control)
Procedure, shortened: as §1

| Compound | normalised response (BT-474 [1]) [%] | normalised response (HCC1599 [2]) [%] | normalised response (MFM-223 [3]) [%] | normalised response (MDA-MB-468 [4]) [%] | normalised response (DU-4475 [5]) [%] | normalised response (CAL-85-1 [6]) [%] | normalised response (MDA-MB-231 [7]) [%] | normalised response (MCF-10A [8]) [%] | normalised response (CAL-148 [9]) [%] | normalised response (HCC1143 [10]) [%] | normalised response (CAL-120 [11]) [%] | normalised response (CAL-51 [12]) [%] | normalised response (BT-549 [13]) [%] | normalised response (HDQ-P1 [14]) [%] | normalised response (Hs578T [15]) [%] | normalised response (MDA-MB-436 [16]) [%] | normalised response (MDA-MB-453 [17]) [%] | normalised response (BT-474 [18]) [%] | normalised response (HCC1599 [19]) [%] | normalised response (MFM-223 [20]) [%] | normalised response (MDA-MB-468 [21]) [%] | normalised response (DU-4475 [22]) [%] | normalised response (CAL-85-1 [23]) [%] | normalised response (MDA-MB-231 [24]) [%] | normalised response (MCF-10A [25]) [%] | normalised response (CAL-148 [26]) [%] | normalised response (HCC1143 [27]) [%] | normalised response (HCC1937 [28]) [%] | normalised response (CAL-120 [29]) [%] | normalised response (CAL-51 [30]) [%] | normalised response (BT-549 [31]) [%] | normalised response (SK-BR-3) [%] | normalised response (HDQ-P1 [32]) [%] | normalised response (Hs578T [33]) [%] | normalised response (MDA-MB-436 [34]) [%] | normalised response (MDA-MB-453 [35]) [%] | normalised response (HCC1937 [36]) [%] |
| --- | --- | --- | --- | --- | --- | --- | --- | --- | --- | --- | --- | --- | --- | --- | --- | --- | --- | --- | --- | --- | --- | --- | --- | --- | --- | --- | --- | --- | --- | --- | --- | --- | --- | --- | --- | --- | --- |
| CN1CCC(COc2cnc(-c3cccc(Cn4nc(-c5cccc(C#N)c5)ccc4=O)c3)nc2)CC1 (10 nM) | 94.1 | 101 | 103 | 73.8 | 99.5 | 108 | 98.5 | 70 | 108 | 89.6 | 95.4 | 83.9 | 103 | 115 | 76.3 | 88.8 | 100 | 96.7 | 100 | 89.8 | 93.2 | 99 | 97.2 | 102 | 94.9 | 92.9 | 101 | 94.6 | 98.8 | 64.8 | 104 | 80.8 | 96.4 | 92.8 | 89 | 89.2 |  |
| COc1cc(Nc2ncc3c(n2)-c2ccc(Cl)cc2C(c2c(F)cccc2OC)=NC3)ccc1C(=O)O [Alisertib] (100 nM) | 91.7 | 92.3 | 97 | 18.6 | 89.9 | 77.7 | 69.8 | 68.7 | 90.1 | 75 | 92.8 | 27.8 | 96.1 | 101 | -59.3 | 68.9 | 93.9 | 77.2 | 80.3 | 76.3 | 33.2 | 67 | 63.7 | 84 | 81.2 | 102 | 71.2 | 82.8 | 78.1 | 69.1 | 73.2 | 67.9 | 87 | 74.2 | 67.6 | 62 | 85.9 |
| Nc1ccn([C@@H]2O[C@H](CO)[C@@H](O)[C@@H]2O)c(=O)n1 [Cytarabine] (100 nM) | 104 | 111 | 102 | 103 | 112 | 103 | 115 | 102 | 75.5 | 99.4 | 109 | 88.1 | 113 | 101 | 106 | 81.4 | 108 | 97.3 | 88.6 | 95.3 | 94.6 | 90.4 | 96.5 | 99 | 110 | 74.7 | 98.8 | 98.9 | 101 | 85.8 | 94 | 80.1 | 96.7 | 96.7 | 95.1 | 141 |  |
| Cc1c2oc3c(C)ccc(C(=O)N[C@@H]4C(=O)N[C@H](C(C)C)C(=O)N5CCC[C@H]5C(=O)N(C)CC(=O)N(C)[C@@H](C(C)C)C(=O)O[C@@H]4C)c3nc-2c(C(=O)N[C@@H]2C(=O)N[C@H](C(C)C)C(=O)N3CCC[C@H]3C(=O)N(C)CC(=O)N(C)[C@@H](C(C)C)C(=O)O[C@@H]2C)c(N)c1=O [Dactinomycin] (10 nM) | 102 | 99.3 | 104 | 84 | 74.7 | 69.3 | 43.8 | 109 | 17.1 | 117 | 102 | -32.3 | 80.4 | 82.8 | 104 | 90.8 | 91.5 | 64.6 | 102 | 88.9 | 18.7 | 3.42 | 51.7 | 62.1 | 52.2 | 27.2 | 54.7 | 51 | 65 | 20.4 | 13.3 | 59.2 | 41.5 | 58.7 | 53.4 | 84.7 | 107 |
| CCN1CCN(c2ccc(Nc3cc(N(C)C(=O)Nc4c(Cl)c(OC)cc(OC)c4Cl)ncn3)cc2)CC1 [NVP-BGJ398] (10 nM) | 98.8 | 91.5 | 89.8 | 154 | 98.7 | 112 | 99.2 | 100 | 101 | 81.9 | 96.6 | 76 | 95 |  | 92 | 103 | 99.5 | 102 | 115 | 95.8 | 99.4 | 97.8 | 100 | 93.2 | 98.1 | 97.2 | 100 | 96.9 | 91.4 | 58.6 | 99.4 | 97.7 | 104 | 99.9 | 95.2 | 92.7 | 106 |
| C=CCNC1=C2C[C@@H](C)C[C@H](OC)[C@H](O)[C@@H](C)/C=C(\C)[C@H](OC(N)=O)[C@@H](OC)/C=C\C=C(/C)C(=O)NC(=CC1=O)C2=O [Tanespimycin] (100 nM) | 76.6 | 103 | 99 | 111 | 93.8 | 74.2 |  | 69.5 | 71.8 | 90.8 | 90.5 | 82.5 | 91.7 | 81.7 | 100 | 67.8 | 84.5 | 99.3 | 93.8 | 53.7 | 97.3 | 86.4 | 98.8 | 95.9 | 50 | 85.5 | 49.5 | 70.8 | 85.8 | 47.6 | 47.2 | 44.2 | 61.1 | 66.7 | 47.3 | 27.9 | 98.7 |
| C[C@]1(c2nc3c(C(N)=O)cccc3[nH]2)CCCN1 [Veliparib] (100 nM) | 101 | 115 | 108 | 107 | 102 | 105 | 95.9 |  | 103 | 95.9 | 98.3 | 96.9 | 108 | 109 | 111 | 61.1 | 103 | 98.3 | 102 | 98.6 | 96.5 | 103 | 105 | 105 | 96.5 | 96.4 | 100 | 101 | 96.5 | 76.4 | 101 | 95.2 | 102 | 102 | 99 | 102 | 87.8 |
| CS(=O)(=O)c1ccc(C(=O)Nc2ccc(Cl)c(-c3ccccn3)c2)c(Cl)c1 [Vismodegib] (100 nM) | 92.5 | 100 | 88.8 | 87 | 101 | 105 | 72.6 | 96.2 |  | 99.2 | 98.9 | 98.4 | 86.2 | 108 | 80 | 91.3 | 93.1 | 94.4 | 95.1 | 94.4 | 96.8 | 99.4 | 98.8 | 94.3 | 93 | 94.6 | 94.1 | 99 | 93.1 | 109 | 101 | 92.7 | 99 | 95.5 | 96 | 88.4 | 97.9 |
